Assays:
Type in all cases: in vivo
[1] = system: American cockroaches (Periplaneta Americana); assay: Test Example 1: oil solution spray knock-down test on American cockroaches; conditions: 0.1% (w/v) oil solution, 1.5 ml sprayed, adult American cockroaches
Experimental: Zero point one (0.1) part of the compound of the present inventions (1) to (6) was dissolved in 10 parts of isopropyl alcohol and the solution was mixed with 89.9 parts of deodorized kerosene to prepare a 0.1% (w/v) oil solution.
(§1) Six adult American cockroaches (Periplaneta Americana, 3 males and 3 females) were released in a test container (diameter 12.5 cm, 10 cm high, the bottom face is made of 16 mesh metallic wire), the inner face on which butter was applied, and the container was set at the bottom of a test chamber (bottom face: 46 cm×46 cm, height: 70 cm). Each 1.5 ml of the oil solution of the compound of the present invention (1) to (6) was sprayed using a spray gun at a pressure of 0.4 kg/cm^2 from 60 cm higher than the upper face of the container. Thirty seconds after the spraying, the container was pulled out from the chamber. After a prescribed time, the number of knocked-down cockroaches was counted and a knock-down ratio was determined (repeated twice). The knocked-down ratio was calculated by the following equation. Knocked-down ratio(%)=(Number of knocked-down cockroaches/Number of test cockroaches)×100
For comparison, the test was conducted in the same manner as the above, except for using 2,5-dioxo-3-(2-propynyl)imidazolidinylmethyl=(1R)-trans-3-(2-methyl-1-propenyl)-2,2-dimethylcyclopropane carboxylate (compound described in Pesticide Science, 10, p. 291 (1979), hereinafter referred to as the comparative compound (1)) represented by the following formula:
[drawing 41] and 2,5-dioxo-3-(2-propynyl)imidazolidinylmethyl=(1R)-cis-3-((Z)-2-cyano-2-methoxyethenyl)-2,2-dimethylcyclopropane carboxylate (compound described in JP-A-60-16962, hereinafter referred to as the comparative compound (2)) represented by the following formula: […]

[2] = system: German cockroaches (Blattella germanica); assay: Test Example 2: oil solution spray knock-down test on German cockroaches; conditions: 0.00625% (w/v) oil solution, 1.5 ml sprayed, adult German cockroaches
Experimental: Zero point zero six two five (0.00625) part of the compound of the present inventions (1) to (6) and (9) to (12) was dissolved in 10 parts of isopropyl alcohol and the solution was mixed with 89.99375 parts of deodorized kerosene to prepare a 0.00625% (w/v) oil solution.
Ten adult German cockroaches (Blattella germanica, 5 males and 5 females) were released in a test container (diameter 8.75 cm, 7.5 cm high, the bottom face is made of 16 mesh metallic wire), the inner face on which butter was applied, and the container was set at the bottom of a test chamber (bottom face: 46 cm×46 cm, height: 70 cm).
Each 1.5 ml of the oil solution of the compound of the present invention (1) to (6) and (9) to (12) was sprayed using a spray gun at a pressure of 0.4 kg/cm^2 from 60 cm higher than the upper face of the container. Thirty seconds after the spraying, the container was pulled out from the chamber. After a prescribed time, the number of knocked-down cockroaches was counted and a knock-down ratio was determined (repeated once). A knocked-down ratio was calculated by the following equation. Knocked-down ratio(%)=(Number of knocked-down cockroaches/Number of test cockroaches)×100 The results (2 minutes after spraying) are shown in Table 2.

[3] = system: American cockroaches (Periplaneta fuliginosa); assay: Test Example 7: oil solution spray knock-down test on cockroaches (Periplaneta fuliginosa); conditions: 0.1% (w/v) oil solution, 1.5 ml sprayed; adult cockroaches (Periplaneta fuliginosa); one minute after spraying
Experimental: Zero point one (0.1) part of the compound of the present invention (4) was dissolved in 10 parts of isopropyl alcohol and the solution was mixed with 89.9 parts of deodorized kerosene to prepare a 0.1% (w/v) oil solution.
as §1, with “fuliginosa,” for “Americana,”, “One point five (1.5)” for “Each 1.5”, “(4)” for “(1) to (6)”, “One minutes after spraying,” for “After a prescribed time,”, “cockroaches)×100 The knocked-down ratio of the compound of the present invention (4) was 100%.” for “cockroaches)×100”

[4] = system: American cockroaches (Periplaneta Americana); assay: Test Example 8: oil solution spray knock-down test on American cockroaches, 3 minutes; conditions: 0.1% (w/v) oil solution, 1.5 ml sprayed, adult American cockroaches
Experimental: Zero point one (0.1) part of the compound of the present inventions (1) to (6) and (9) to (12) was dissolved in 10 parts of isopropyl alcohol and the solution was mixed with 89.9 parts of deodorized kerosene to prepare a 0.1% (w/v) oil solution.
as §1, with “(6) and (9) to (12)” for “(6)”, “Three minutes after spraying,” for “After a prescribed time,”

C#CCN1CC(=O)N(COC(=O)[C@@H]2[C@@H](/C=C(\C#N)SC)C2(C)C)C1=O [compound of the present invention (4), 2,5-dioxo-3-(2-propynyl)imidazolidinylmethyl=(1R)-trans-3-[(1E)-2-cyano-2-(methylthio)ethenyl]-2,2-dimethylcyclopropane carboxylate]
100%: Knock-down ratio (%) 2 minutes after spraying [1] | Knock-down ratio (%) 2 minutes after spraying [2] | Knocked-down ratio [3] | Knock-down ratio (%) 3 minutes after spraying [4]

Reference: patent US8507692B2, “Ester compound and use thereof” (Sumitomo Chemical Company, Limited, priority 2010, dated 2013)
